# Measurements taken from publication PMC9705736, “Synthesis of activity evaluation of flavonoid derivatives as ɑ-glucosidase inhibitors” (Frontiers in Chemistry, 2022).
# Assays:
# [1] = biological target: T1, α-Glucosidase from Saccharomyces cerevisiae (EC 3.2.1.20) (Saccharomyces cerevisiae, UniProt P53341); experiment: biochemical
# T1 construct: purchased Sigma-Aldrich
# [2] = biological target: T1, α-Glucosidase from Saccharomyces cerevisiae (EC 3.2.1.20); experiment: Enzyme inhibitory mechanism and kinetic type assay (Lineweaver-Burk plots); type: biochemical; details: compound 0–25 μM
# From the text: To study the inhibitory mechanisms of all derivatives on α-glucosidase, enzyme inhibitory mechnism was detected using compound 4 with the strongest inhibitory. Figure 3A illustrated the plots of enzyme activity vs. enzyme concentration.
# The kinetic type was also studied using Lineweaver-Burk plots.
# α-Glucosidase from Saccharomyces cerevisiae (EC 3.2.1.20) and p-Nitrophenyl-α-D-[…] (p-NPG) were purchased from Sigma-Aldrich. All additional reagents and solvents were readily obtained from a commercial source. NMR spectra were obtained on 500 MHz equipment in CDCl3. High-resolution mass spectral (HRMS) data was recorded on Apex II using the ESI technique.
# The α-glucosidase inhibitory activity of compounds (1 ∼ 6) was detected as described in previous reports ([Adisakwattana et al., 2009]; [Adisakwattana et al., 2013]; [Zhang et al., 2022]). 10 μl α-glucosidase solution, 10 μl compound were added into 80 μl phosphate buffer, and the mixture was incubated for 10 min. Then, 100 μl p-NPG solution was added into the mixture, followed by the absorbance change detection at 405 nm. The inhibition rate (%) = […] × 100%, where OD1 and OD0 were the absorbance of tested compound and blank, respectively. The IC50 value was calculated from the plot of inhibition rate vs. compound concentration. Acarbose was used as a positive sample. All samples were repeated four times. The enzyme inhibitory mechnism and kinetic type were also determined according to previous reported reports ([Adisakwattana et al., 2004]; [Song et al., 2016]).
# T1 sequence (P53341 whole entry): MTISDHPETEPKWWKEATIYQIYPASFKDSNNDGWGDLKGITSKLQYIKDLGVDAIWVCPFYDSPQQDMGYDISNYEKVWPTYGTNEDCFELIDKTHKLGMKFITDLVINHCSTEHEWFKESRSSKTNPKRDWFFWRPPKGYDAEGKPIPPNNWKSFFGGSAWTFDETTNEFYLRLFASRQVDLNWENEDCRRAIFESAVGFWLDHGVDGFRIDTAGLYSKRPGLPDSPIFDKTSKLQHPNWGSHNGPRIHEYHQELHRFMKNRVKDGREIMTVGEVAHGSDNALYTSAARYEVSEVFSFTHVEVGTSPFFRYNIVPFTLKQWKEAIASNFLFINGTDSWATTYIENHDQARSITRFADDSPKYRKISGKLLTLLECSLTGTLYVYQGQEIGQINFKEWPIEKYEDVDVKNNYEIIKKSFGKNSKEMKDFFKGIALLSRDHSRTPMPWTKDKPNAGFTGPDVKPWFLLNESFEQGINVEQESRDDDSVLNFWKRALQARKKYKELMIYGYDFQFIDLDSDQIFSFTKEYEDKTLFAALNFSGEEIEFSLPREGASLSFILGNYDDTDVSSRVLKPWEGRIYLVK
Compound,IC50 [1] [µM],melting point [°C],Inhibition type (Lineweaver-Burk plots of enzyme activity vs. substrate concentration) [2],Inhibitory mechanism (plots of enzyme activity vs. enzyme concentration) [2],Inhibition type (Lineweaver-Burk plots of enzyme activity vs. substrate concentration) ([2]; listed as derivative four),Inhibitory mechanism (plots of enzyme activity vs. enzyme concentration) ([2]; listed as derivative four)
O=C(CCc1ccc(Br)cc1)Oc1ccc(-c2cc(=O)c3ccccc3o2)cc1 [Compound 4],15.7 ± 0.21,127 to 129,mix-type inhibition,reversible inhibitor,mixed-type inhibitor,reversible
O=C(CCc1ccc(F)cc1)Oc1ccc(-c2cc(=O)c3ccccc3o2)cc1 [Compound 5],19.66 ± 0.04,103 to 104,–,–,–,–
Cc1ccc(CCC(=O)Oc2ccc(-c3cc(=O)c4ccccc4o3)cc2)cc1 [Compound 2],21.55 ± 0.13,135 to 136,–,–,–,–
O=C(CCc1ccc(C(F)(F)F)cc1)Oc1ccc(-c2cc(=O)c3ccccc3o2)cc1 [Compound 6],27.54 ± 0.02,250 to 251,–,–,–,–
O=C(CCc1ccccc1)Oc1ccc(-c2cc(=O)c3ccccc3o2)cc1 [Compound 1],42.06 ± 0.08,133 to 134,–,–,–,–
O=C(CCc1ccc(Cl)cc1)Oc1ccc(-c2cc(=O)c3ccccc3o2)cc1 [Compound 3],31.09 ± 0.1,112 to 114,–,–,–,–
